Measured values from the NIST ThermoML archive (doi:10.1016/j.fluid.2005.05.023).
Numbers after ± are expanded uncertainties.

Assay: xn = mol fraction of the nth substance listed
Settings: Liquid, Vibrating tube method

Cc1ccccc1 [toluene] + CCO
mass density [kg/m3]
Settings | 100 kPa | 5000 kPa | 10000 kPa | 15000 kPa | 20000 kPa | 25000 kPa | 30000 kPa | 35000 kPa | 40000 kPa | 45000 kPa
283.15 K, x2 = 0 | 876.1 ± 0.2 | 879.5 ± 0.2 | 882.9 ± 0.3 | 886.1 ± 0.3 | 889.3 ± 0.3 | 892.4 ± 0.3 | 895.3 ± 0.3 | 898.2 ± 0.3 | 901 ± 0.3 | 903.7 ± 0.3
283.15 K, x2 = 0.125 | 870.4 ± 0.3 | 873.9 ± 0.3 | 877.4 ± 0.3 | 880.7 ± 0.3 | 883.8 ± 0.3 | 886.9 ± 0.3 | 889.9 ± 0.3 | 892.8 ± 0.3 | 895.6 ± 0.3 | 898.4 ± 0.3
283.15 K, x2 = 0.25 | 864.3 ± 0.3 | 867.9 ± 0.3 | 871.3 ± 0.3 | 874.6 ± 0.3 | 877.9 ± 0.3 | 881 ± 0.3 | 884 ± 0.3 | 886.9 ± 0.3 | 889.7 ± 0.3 | 892.5 ± 0.3
283.15 K, x2 = 0.375 | 857.5 ± 0.3 | 861.1 ± 0.3 | 864.6 ± 0.3 | 867.9 ± 0.3 | 871.2 ± 0.3 | 874.3 ± 0.3 | 877.3 ± 0.3 | 880.3 ± 0.3 | 883.1 ± 0.3 | 885.9 ± 0.4
283.15 K, x2 = 0.5 | 849.5 ± 0.3 | 853.2 ± 0.3 | 856.7 ± 0.3 | 860.1 ± 0.3 | 863.4 ± 0.3 | 866.5 ± 0.3 | 869.6 ± 0.3 | 872.5 ± 0.3 | 875.4 ± 0.4 | 878.2 ± 0.4
283.15 K, x2 = 0.625 | 840.2 ± 0.3 | 843.9 ± 0.3 | 847.5 ± 0.3 | 850.9 ± 0.3 | 854.2 ± 0.3 | 857.4 ± 0.3 | 860.5 ± 0.4 | 863.5 ± 0.4 | 866.4 ± 0.4 | 869.2 ± 0.4
283.15 K, x2 = 0.75 | 829.2 ± 0.3 | 832.9 ± 0.3 | 836.5 ± 0.3 | 840 ± 0.3 | 843.4 ± 0.3 | 846.6 ± 0.4 | 849.7 ± 0.4 | 852.8 ± 0.4 | 855.7 ± 0.4 | 858.6 ± 0.4
283.15 K, x2 = 0.875 | 815.4 ± 0.3 | 819.2 ± 0.4 | 823 ± 0.4 | 826.5 ± 0.4 | 829.9 ± 0.4 | 833.2 ± 0.4 | 836.4 ± 0.4 | 839.5 ± 0.4 | 842.5 ± 0.4 | 845.4 ± 0.5
293.15 K, x2 = 0 | 866.8 ± 0.2 | 870.5 ± 0.2 | 874.1 ± 0.3 | 877.5 ± 0.3 | 880.8 ± 0.3 | 884 ± 0.3 | 887.1 ± 0.3 | 890.1 ± 0.3 | 893 ± 0.3 | 895.9 ± 0.3
293.15 K, x2 = 0.125 | 861 ± 0.3 | 864.7 ± 0.3 | 868.3 ± 0.3 | 871.8 ± 0.3 | 875.1 ± 0.3 | 878.4 ± 0.3 | 881.5 ± 0.3 | 884.6 ± 0.3 | 887.5 ± 0.3 | 890.4 ± 0.3
293.15 K, x2 = 0.25 | 854.9 ± 0.3 | 858.6 ± 0.3 | 862.3 ± 0.3 | 865.8 ± 0.3 | 869.2 ± 0.3 | 872.5 ± 0.3 | 875.6 ± 0.3 | 878.7 ± 0.3 | 881.7 ± 0.3 | 884.5 ± 0.4
293.15 K, x2 = 0.375 | 848.1 ± 0.3 | 851.8 ± 0.3 | 855.5 ± 0.3 | 859.1 ± 0.3 | 862.5 ± 0.3 | 865.8 ± 0.3 | 869 ± 0.3 | 872.1 ± 0.3 | 875.1 ± 0.4 | 878 ± 0.4
293.15 K, x2 = 0.5 | 840.3 ± 0.3 | 844 ± 0.3 | 847.8 ± 0.3 | 851.4 ± 0.3 | 854.8 ± 0.3 | 858.1 ± 0.3 | 861.4 ± 0.3 | 864.5 ± 0.4 | 867.5 ± 0.4 | 870.4 ± 0.4
293.15 K, x2 = 0.625 | 831.1 ± 0.3 | 834.9 ± 0.3 | 838.7 ± 0.3 | 842.3 ± 0.3 | 845.8 ± 0.3 | 849.2 ± 0.3 | 852.4 ± 0.4 | 855.5 ± 0.4 | 858.6 ± 0.4 | 861.5 ± 0.4
293.15 K, x2 = 0.75 | 820.2 ± 0.3 | 824.1 ± 0.3 | 827.9 ± 0.3 | 831.6 ± 0.3 | 835.1 ± 0.4 | 838.5 ± 0.4 | 841.8 ± 0.4 | 845 ± 0.4 | 848 ± 0.4 | –
293.15 K, x2 = 0.875 | 806.6 ± 0.3 | 810.6 ± 0.3 | 814.5 ± 0.4 | 818.3 ± 0.4 | 821.9 ± 0.4 | 825.4 ± 0.4 | 828.7 ± 0.4 | 831.9 ± 0.4 | 835 ± 0.5 | –
